These are literature values, as cited in patent US20150289553A1, “METHOD OF DEVELOPING SAFE AND EFFECTIVE DIETARY SUPPLEMENTS” (priority 2014, published 2015).

Where two headings read alike, the source gives them in different places.

For series [1] the following is noted: for Clinically Effective Dosage Range: daily dosage, adults (18+ yrs.); for Dataset 2 Clinical Efficacy: Table 5, multivitamin/mineral for adult U.S. women.
For series [2] the following is noted: high intake of supplemental calcium; men.
The conditions of series [3]: calcium supplements; almost 24,000 participants.
Assay in series [4]: not given
This is another data set of the same source.

The conditions of series [5]: 600 IU every other day; 39,876 women.
The conditions of series [6]: 400 IU every other day for 8 years; 14,641 men.
The conditions of series [7]: 400 IU/d; 19 trials, 135,967 subjects.
Setting [8] is: adults (18+ yrs.), derived from published literature and regulatory files.
Where [9] appears, read: Table 5, multivitamin/mineral for adult U.S. women.

Regarding `CC1=CCCC(C)(C)C1/C=C/C(C)=C/C=C/C(C)=C/C=C/C=C(C)/C=C/C=C(C)/C=C/C1=C(C)CCCC1(C)C` (stereo not drawn) [Alpha-Carotene], the “Clinically Effective Dosage Range” value in series [1] is 0.01 to 5 mg. The “Upper Limits, Other Nutrients” value under setting [8] was 8.3 mg.
For `CC/C=C\C/C=C\C/C=C\CCCCCCCC(=O)O` [Alpha-Linolenic Acid], under “in vivo”, the “Upper Limits, Other Nutrients” value was 25000 mg.
As to `CC1=C(/C=C/C(C)=C/C=C/C(C)=C/C=C/C=C(C)/C=C/C=C(C)/C=C/C2=C(C)C(=O)[C@@H](O)CC2(C)C)C(C)(C)C[C@H](O)C1=O` [Astaxanthin], the “Clinically Effective Dosage Range” value in series [1] is 4 to 100 mg. Where the note is “in vivo”, the “Upper Limits, Other Nutrients” value is 5.3 mg.
Consider `CC1=C(/C=C/C(C)=C/C=C/C(C)=C/C=C/C=C(C)/C=C/C=C(C)/C=C/C2=C(C)CCCC2(C)C)C(C)(C)CCC1` [Beta-Carotene], for which the “Clinically Effective Dosage Range” value in series [1] is 1 to 180 mg. Moreover, the “Upper Limits, CRN-listed Nutrients” value (adults (18+ yrs.), non-smokers) was 25 mg.
Regarding `O=C(O)CCCC[C@@H]1SC[C@@H]2NC(=O)N[C@@H]21` [Biotin], in series [1], the “Dataset 2 Clinical Efficacy” value was 0.003 to 15 mg and the “Clinically Effective Dosage Range” value is listed as 3-15,000 mcg. For the same compound, under setting [9], the “Dataset 1 Upper Limits” value is 2.5 mg. Where the note is “adults (18+ yrs.)”, the “Upper Limits, CRN-listed Nutrients” value is on record as 2,500 mcg.
Take `[B]` [Boron]: the “Clinically Effective Dosage Range” value in series [1] was 0.2 to 11.6 mg. Also, the “Upper Limits, CRN-listed Nutrients” value (in vivo) is 6 mg.
With `[Ca+2]` [Calcium], in series [1], the “Dataset 2 Clinical Efficacy” value is 130 to 2000 mg and the “Clinically Effective Dosage Range” value is 130-2,000 mg. The “risk of cardiovascular disease death” value in series [2] is reported as “associated with an excess risk of cardiovascular disease death”. In series [3], the “risk of myocardial infarction” value is “raised the risk of myocardial infarction”. For the same compound, under setting [9], the “Dataset 1 Upper Limits” value is listed as 1500 mg. The “Upper Limits, CRN-listed Nutrients” value (adults (18+ yrs.)) was 1,500 mg.
In the case of `C[N+](C)(C)CCO` [Choline], the “Upper Limits, Other Nutrients” value under setting [8] is reported as 3,500 mg.
As to `[Cr]` [Chromium], in series [1], the “Dataset 2 Clinical Efficacy” value is 0.0035 to 1 mg and the “Clinically Effective Dosage Range” value is 3.5-1,000 mcg. The “Dataset 1 Upper Limits” value under setting [9] was 1 mg. Moreover, where the note is “adults (18+ yrs.)”, the “Upper Limits, CRN-listed Nutrients” value was 1,000 mcg.
Turning to `[Cu]` [Copper], in series [1], the “Dataset 2 Clinical Efficacy” value is 0.09 to 8 mg and the “Clinically Effective Dosage Range” value was 0.09 to 8 mg. For the setting “in vivo”, the “Dataset 1 Upper Limits” value is recorded as 9 mg and the “Upper Limits, CRN-listed Nutrients” value was 9 mg.
With `Nc1nc2ncc(CNc3ccc(C(=O)N[C@@H](CCC(=O)O)C(=O)O)cc3)nc2c(=O)[nH]1` [Folic Acid], in series [1], the “Dataset 2 Clinical Efficacy” value is 0.04 to 5 mg and the “Clinically Effective Dosage Range” value is on record as 40-5,000 mcg. In addition, in series [4] (folic acid in supplements versus folic acid in foods (folates)), the bioavailability result was “higher bioavailability”.
`[Fe]` [Iron]: in series [1], the “Dataset 2 Clinical Efficacy” value is 125 to 2000 mg and the “Clinically Effective Dosage Range” value was 1.8 to 120 mg. Further, where the note is “in vivo”, the “Dataset 1 Upper Limits” value is reported as 60 mg and the “Upper Limits, CRN-listed Nutrients” value is listed as 60 mg.
Turning to `CC1=C[C@H](O)CC(C)(C)[C@H]1/C=C/C(C)=C/C=C/C(C)=C/C=C/C=C(C)/C=C/C=C(C)/C=C/C1=C(C)C[C@@H](O)CC1(C)C` [Lutein], in series [1], the “Dataset 2 Clinical Efficacy” value is 0.1 to 20 mg and the “Clinically Effective Dosage Range” value was 0.1 to 20 mg. In addition, for the setting “in vivo”, the “Dataset 1 Upper Limits” value was 17.6 mg and the “Upper Limits, Other Nutrients” value is listed as 17.6 mg.
Take `CC(C)=CCC/C(C)=C/C=C/C(C)=C/C=C/C(C)=C/C=C/C=C(C)/C=C/C=C(C)/C=C/C=C(\C)CCC=C(C)C` [Lycopene]: the “Clinically Effective Dosage Range” value in series [1] was 0.2 to 30 mg. Also, the “Upper Limits, Other Nutrients” value under setting [8] is reported as 11.3 mg.
As for `[Mg+2]` [Magnesium], in series [1], the “Dataset 2 Clinical Efficacy” value was 42 to 1200 mg and the “Clinically Effective Dosage Range” value is 42-1,200 mg. Moreover, the “Dataset 1 Upper Limits” value under setting [9] was 400 mg. Besides, the “Upper Limits, CRN-listed Nutrients” value (adults (18+ yrs.)) was 400 mg.
In the case of `[Mn+2]` [Manganese], in series [1], the “Dataset 2 Clinical Efficacy” value was 0.23 to 30 mg and the “Clinically Effective Dosage Range” value is 0.23 to 30 mg. Under setting [9], the “Dataset 1 Upper Limits” value is 10 mg. The “Upper Limits, CRN-listed Nutrients” value (adults (18+ yrs.)) is 10 mg.
`[Mo]` [Molybdenum]: the “Clinically Effective Dosage Range” value in series [1] is 0.0045 to 0.467 mg. Besides, the “Upper Limits, CRN-listed Nutrients” value (in vivo) was 0.35 mg.
`NC(=O)c1cccnc1` [Nicotinamide]: in series [1], the “Dataset 2 Clinical Efficacy” value was 1.6 to 3000 mg and the “Clinically Effective Dosage Range” value was 1.6-3,000 mg. The “Dataset 1 Upper Limits” value under setting [9] is on record as 1500 mg. Also, the “Upper Limits, CRN-listed Nutrients” value (adults (18+ yrs.)) was 1,500 mg.
With `O=C(O)c1cccnc1` [Nicotinic Acid], the “Clinically Effective Dosage Range” value in series [1] is reported as 1.6-3,000 mg. In addition, the “Upper Limits, CRN-listed Nutrients” value (adults (18+ yrs.)) is given as 250 mg.
`[P]` [Phosphorus]: in series [1], the “Clinically Effective Dosage Range” value is 125-2,000 mg. Moreover, the “Upper Limits, CRN-listed Nutrients” value (adults (18+ yrs.)) is recorded as 1,500 mg.
With `[K+]` [Potassium], the “Clinically Effective Dosage Range” value in series [1] is recorded as 470-5,000 mg. Also, the “Upper Limits, CRN-listed Nutrients” value (adults (18+ yrs.)) was 1,500 mg.
On to `[Se]` [Selenium], for which, in series [1], the “Dataset 2 Clinical Efficacy” value is on record as 5.5-200^ mcg and the “Clinically Effective Dosage Range” value is 0.0055 to 0.2 mg. Moreover, where the note is “in vivo”, the “Dataset 1 Upper Limits” value was 0.2 mg and the “Upper Limits, CRN-listed Nutrients” value is 0.2 mg.
Turning to `CC1=C(/C=C/C(C)=C/C=C/C(C)=C/CO)C(C)(C)CCC1` [Vitamin A (retinol and its esters), retinol], in series [1], the “Dataset 2 Clinical Efficacy” value is 0.09 to 3.3 mg and the “Clinically Effective Dosage Range” value is listed as 90-3,300 mcg. Also, under “in vivo”, the “Dataset 1 Upper Limits” value is 1.5 mg and the “Upper Limits, CRN-listed Nutrients” value is reported as 1,500 mcg.
Take `Cc1ncc(C[n+]2csc(CCO)c2C)c(N)n1` [Vitamin B1 (thiamin), thiamin]: in series [1], the “Dataset 2 Clinical Efficacy” value is on record as 0.12-1000^ mg and the “Clinically Effective Dosage Range” value is 0.12-1,000 mg. Besides, under setting [9], the “Dataset 1 Upper Limits” value was 100 mg. Moreover, the “Upper Limits, CRN-listed Nutrients” value (adults (18+ yrs.)) is reported as 100 mg.
For the compound `Cc1ncc(CO)c(CO)c1O` [Vitamin B6 (pyridoxine), pyridoxine], in series [1], the “Dataset 2 Clinical Efficacy” value was 0.17 to 200 mg and the “Clinically Effective Dosage Range” value was 0.17 to 200 mg. For the same compound, the “Dataset 1 Upper Limits” value under setting [9] is 100 mg. For the same compound, under “adults (18+ yrs.)”, the “Upper Limits, CRN-listed Nutrients” value was 100 mg.
As to `O=C1O[C@H]([C@@H](O)CO)C(O)=C1O` [Vitamin C, ascorbic acid], in series [1], the “Dataset 2 Clinical Efficacy” value was 9 to 10000 mg and the “Clinically Effective Dosage Range” value is reported as 9-10,000 mg.
For `C=C1CC[C@H](O)C/C1=C/C=C1\CCC[C@]2(C)[C@@H]([C@H](C)CCCC(C)C)CC[C@@H]12` [Vitamin D, cholecalciferol], in series [1], the “Dataset 2 Clinical Efficacy” value was 0.002 to 0.25 mg and the “Clinically Effective Dosage Range” value was 0.002 to 0.25 mg.
Consider `Cc1c(C)c2c(c(C)c1O)CC[C@@](C)(CCC[C@H](C)CCC[C@H](C)CCCC(C)C)O2` [Vitamin E, RRR-alpha-tocopherol], for which, in series [1], the “Dataset 2 Clinical Efficacy” value was 1.5 to 1342 mg and the “Clinically Effective Dosage Range” value was 1.5-1,342 mg. The “effects on cardiovascular health or cancer prevention” value in series [5] is “no effects”. Under setting [9], the “Dataset 1 Upper Limits” value was 1000 mg. Further, the “UL (Upper Limit)” value (healthy US adults, Embodiment 1) is 1,000 mg. For the same compound, the “risk for cardiovascular disease” value in series [6] is listed as “did not reduce the risk”. Further, in series [7], the mortality entry is listed as “increased mortality”.
For `CC1=C(/C=C/C(C)=C/C=C/C(C)=C/C=C/C=C(C)/C=C/C=C(C)/C=C/C2=C(C)C[C@@H](O)CC2(C)C)C(C)(C)C[C@H](O)C1` [Zeaxanthin], the “Clinically Effective Dosage Range” value in series [1] was 0.01 to 10 mg. Moreover, the “Upper Limits, Other Nutrients” value (in vivo) is reported as 10 mg.
Take `[O-2].[Zn+2]` [Zinc]: in series [1], the “Dataset 2 Clinical Efficacy” value is 1.1 to 80 mg and the “Clinically Effective Dosage Range” value was 1.1 to 80 mg. In addition, under setting [9], the “Dataset 1 Upper Limits” value is given as 30 mg. In addition, the “Upper Limits, CRN-listed Nutrients” value (adults (18+ yrs.)) is on record as 30 mg.
With `[O]=[Mg]` [magnesium oxide], the bioavailability result in series [4] (versus most organic magnesium salts or chelates (citrate, malate, glycinate)) is recorded as “lower bioavailability”.
Turning to Vitamin K, the “Clinically Effective Dosage Range” value in series [1] is on record as 12-1,000 mcg. In addition, the “Upper Limits, CRN-listed Nutrients” value (in vivo) is reported as 10 mg.
As to cyanocobalamin [Vitamin B12], in series [1], the “Dataset 2 Clinical Efficacy” value is recorded as 0.24-2500^ mcg and the “Clinically Effective Dosage Range” value is listed as 0.24-2,500 mcg. Also, where the note is “in vivo”, the “Dataset 1 Upper Limits” value is 3 mg and the “Upper Limits, CRN-listed Nutrients” value is 3,000 mcg.
